# Test results reported in publication PMC6689897, “Drugging an undruggable pocket on KRAS” (Proceedings of the National Academy of Sciences of the …, 2019).
# System: 4 BRAF(v600E) cell lines (A375, RKO, Colo 201, SK-MEL-28)
# Test: 2D and 3D proliferation in BRAF V600E control cell lines
# Type: cell-based, human
# Settings: low serum, soft agar, or high serum, adherent conditions
# Method: 217 The coordinates and structure factors of the structures have been deposited at the
# 218 Protein Data Bank with the accession codes PDB Code 6GJ5, 6GJ6, 6GJ7, 6GJ8.
# 221 Measurements of various protein–protein interactions were performed using the Alpha
# 222 Screen technology developed by Perkin Elmer. Recombinant RAS proteins (H-, N-, K-
# 223 RAS variants; all KRAS variants are based on KRAS isoform 4B (uniprot id P01116-2);
# 224 KRAS (G12D) 1-169, N-terminal 6His-tag, C-terminal avi-tag was from Xtal
# 225 BioStructures, Inc., KRAS (G12C) 1-169, C-terminal avi-tag, biotinylated, mutations:
# 226 C51S, C80L, C118S, NRAS(wt) 1-172, C-terminal avi-tag, biotinylated; HRAS(wt) 1-
# 227 166, C-terminal avi-tag, biotinylated). Biotinylation was performed in vitro with
# 228 recombinant BirA biotin-protein ligase as recommended by the manufacturer (Avidity
# 229 LLC, Aurora, Colorado, USA). Interacting proteins such as SOS1 (564-1049, N-terminal […]
# 231 PI3KA- RBD (160-317, N-term-HIS_GST-tag) were expressed as glutathione S […]
# 245 for 60 min in the dark at room temperature. Single oxygen induced fluorescence was
# 246 measured at an Enspire multimode plate reader (Perkin Elmer) according to the
# 247 manufacturer’s recommendations. Data were analyzed using the GraphPad Prism data […]
# 275 IgG secondary antibody (Dako #P0448) and detected with ECL (GE Healthcare Life […]
smiles,measurement,value
Cn1cnc(Cn2ccc3ccc(CNCc4[nH]c5ccccc5c4[C@H]4NC(=O)c5ccc(O)cc54)cc32)c1 [Compound 1],antiproliferative effect,No antiproliferative effect
